Reference: US20220119866A1 (priority 2019, published 2022)
Read-outs that look alike come from different tables or passages of the source.

Tests used:
[1] = test system: Clostridium difficile hypervirulent ribotype 027 (RT027) strains; experiment: drug sensitivity test, resistance rate of 269 RT027 strains; assay type: cell-based; settings: for Resistance rate to Category 1 (56 strains) / Resistance rate to Category 2 (23 strains) / Resistance rate to Category 3 (190 strains): 269 RT027 strains; for Resistance rate to Category 2 (23 strains): Category 2 (sensitive branch); for Average resistance rate: all 269 RT027 strains
[2] = test system: Clostridium difficile clade2 strains; assay type: cell-based; settings: for Resistance rate to Category 1 (70 strains) / Resistance rate to Category 2 (96 strains) / Resistance rate to Category 3 (217 strains): 383 clade2 strains; for Average resistance rate: all 383 clade2 strains

In the case of `Cc1ncc([N+](=O)[O-])n1CCO` [Metronidazole, metronidazole], the “Resistance rate to Category 1 (56 strains)” value [1] is reported as 51.79%, the “Resistance rate to Category 2 (23 strains)” value [1] is reported as 0.0% and the “Resistance rate to Category 2 (23 strains)” value ([1]; listed as metronidazole) is reported as 0.0%. For the same molecule, the “Resistance rate to Category 3 (190 strains)” value [1] was 47.37%, the Average resistance rate [1] was 44.24% and the “Resistance rate to Category 1 (70 strains)” value [2] was 52.86%. The “Resistance rate to Category 2 (96 strains)” value [2] was 3.13%, the “Resistance rate to Category 2 (96 strains)” value ([2]; listed as metronidazole) was 3.03% and the “Resistance rate to Category 3 (217 strains)” value [2] was 48.39%. For the same molecule, the Average resistance rate [2] was 37.86%.

With `CN[C@H](CC(C)C)C(=O)N[C@H]1C(=O)N[C@@H](CC(N)=O)C(=O)N[C@H]2C(=O)N[C@H]3C(=O)N[C@H](C(=O)N[C@H](C(=O)O)c4cc(O)cc(O)c4-c4cc3ccc4O)[C@H](O)c3ccc(c(Cl)c3)Oc3cc2cc(c3O[C@@H]2O[C@H](CO)[C@@H](O)[C@H](O)[C@H]2O[C@H]2C[C@](C)(N)[C@H](O)[C@H](C)O2)Oc2ccc(cc2Cl)[C@H]1O` [Vancomycin, vancomycin] the “Resistance rate to Category 1 (56 strains)” value [1] was 94.64%, the “Resistance rate to Category 2 (23 strains)” value [1] was 21.74% and the “Resistance rate to Category 2 (23 strains)” value ([1]; listed as vancomycin) was 21.74%. For the same molecule, the “Resistance rate to Category 3 (190 strains)” value [1] was 21.05%, the “Resistance rate to Category 3 (190 strains)” value ([1]; listed as vancomycin) was 21.05% and the Average resistance rate [1] was 36.43%. For the same molecule, the “Resistance rate to Category 1 (70 strains)” value [2] was 92.86%, the “Resistance rate to Category 2 (96 strains)” value [2] was 30.21% and the “Resistance rate to Category 2 (96 strains)” value ([2]; listed as vancomycin) was 30.21%. For the same molecule, the “Resistance rate to Category 3 (217 strains)” value [2] was 22.58%, the “Resistance rate to Category 3 (217 strains)” value ([2]; listed as vancomycin) was 22.58% and the Average resistance rate [2] was 37.34%.
